The results in this text go back to ChEMBL document CHEMBL5331080, “Discovery of tetrahydrofuranyl spirooxindole-based SMYD3 inhibitors against gastric cancer via inducing lethal autophagy” (Eur J Med Chem, 2023).

The structures appear in SMILES notation. Calls of active or inactive are those of the source. The calls are words filed in the database; no cut-off is given here.

For data set [1], the target named is T1, Histone-lysine N-methyltransferase SMYD3 (Homo sapiens) (UniProt Q9H7B4).
T1 sequence (whole entry): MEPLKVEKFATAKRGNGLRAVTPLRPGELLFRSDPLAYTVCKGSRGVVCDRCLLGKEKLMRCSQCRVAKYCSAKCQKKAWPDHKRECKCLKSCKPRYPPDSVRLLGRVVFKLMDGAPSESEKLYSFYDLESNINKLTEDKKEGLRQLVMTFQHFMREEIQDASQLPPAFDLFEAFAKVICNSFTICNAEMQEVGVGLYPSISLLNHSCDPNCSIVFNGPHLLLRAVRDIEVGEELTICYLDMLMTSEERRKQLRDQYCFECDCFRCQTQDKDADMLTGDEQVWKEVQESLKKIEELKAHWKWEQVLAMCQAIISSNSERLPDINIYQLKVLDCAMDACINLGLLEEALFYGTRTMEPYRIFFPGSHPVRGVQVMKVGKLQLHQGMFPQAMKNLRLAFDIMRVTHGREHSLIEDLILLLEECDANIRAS
Briefly: (§1) Inhibition of GST-tagged SMYD3 (unknown origin) using biotinylated MAP3K2 peptide as substrate incubated for 1 hrs by TR-FRET based assay. Background: TR-FRET usually uses a lanthanide donor and a delayed reading to cut background.

The test system of data set [2] is HGC-27. The data set is described as follows: Antiproliferative activity against human HGC-27 cells assessed as inhibition of cell proliferation by MTT assay. It counts as functional, cell-based.
For data set [3], the system named is BGC-823. Briefly: Antiproliferative activity against human BGC-823 cells assessed as inhibition of cell proliferation by MTT assay. It counts as functional, cell-based.
Data set [4] has as its target T1, Histone-lysine N-methyltransferase SMYD3 (Homo sapiens). The data set is described as follows: Inhibition of SMYD3 in human BGC-823 cells assessed as suppression of H3K4 methylation level at 1 uM by Western blot analysis. It counts as cell-based. A general note: In western blotting, separated proteins are transferred to a membrane and probed.
In data set [5] the test system is BGC-823. Briefly: Effect on total H3 methylation level in human BGC-823 cells at 1 uM by Western blot analysis. It counts as functional, cell-based.
Data set [6] has as its system BGC-823. Briefly: Inhibition of autophagic flux in human BGC-823 cells assessed as p62 accumulation incubated for 24 hrs in the presence of 3-MA by Western blot analysis. It counts as functional, cell-based.
The test system of data set [7] is BGC-823. Briefly: Antitumor activity against human BGC-823 cells xenografted in ip dosed Balb/c nude mouse assessed as suppression of tumor volume. It counts as functional, organism-based. Particulars: dose 15-30 mg/kg. A general note: Xenograft models place foreign cells or tissue in a host animal.
The subject of data set [8] is BGC-823. The data set is described as follows: Inhibition of autophagic flux in human BGC-823 cells assessed as inhibition of autophagosome-lysosome fusion by measuring suppression of GFP-LC3 and LAMP1 intracellular co-localization incubated for 24 hrs by DAPI staining based immunofluorescence analysis. It counts as functional, cell-based.
Data set [9] has as its system BGC-823. Briefly: Inhibition of autophagic flux in human BGC-823 cells transfected with Akt1 siRNA assessed as p62 accumulation incubated for 24 hrs by Western blot analysis. It counts as functional, cell-based.
Data set [10] concerns the target T2, Histone-lysine N-methyltransferase SMYD3 (Homo sapiens, UniProt Q9H7B4).
T2 sequence (Q9H7B4 whole entry): T1 sequence (whole entry)
Described as §1.

Data set [11] relates to BGC-823. Briefly: Antiproliferative activity against human BGC-823 cells transfected with […] siRNA assessed as reduction in cell viability incubated for 48 hrs by MTT assay. It counts as functional, cell-based.
Data set [12] concerns BGC-823. Briefly: Antitumor activity against human BGC-823 cells xenografted in ip dosed Balb/c nude mouse assessed as suppression of tumor weight. It counts as functional, organism-based. Particulars: dose 15-30 mg/kg.
The test system of data set [13] is BGC-823. The data set is described as follows: Antiproliferative activity against human BGC-823 cells xenografted in Balb/c nude mouse assessed as induction of autophagy by measuring increase in p62 staining at 15 to 30 mg/kg, ip by immunohistochemistry analysis. It counts as functional, organism-based. To be noted: dose 15-30 mg/kg.
Data set [14] relates to BGC-823. The data set is described as follows: Antiproliferative activity against human BGC-823 cells assessed as reduction in cell viability incubated for 48 hrs in the presence of 3-MA by MTT assay. It counts as functional, cell-based.
For data set [15], the target named is Histone-lysine N-methyltransferase, H3 lysine-79 specific (Homo sapiens) (UniProt Q8TEK3). Briefly: Inhibition of DOT1L (unknown origin).
Histone-lysine N-methyltransferase, H3 lysine-79 specific (Homo sapiens), sequence (Q8TEK3 whole entry, looked up): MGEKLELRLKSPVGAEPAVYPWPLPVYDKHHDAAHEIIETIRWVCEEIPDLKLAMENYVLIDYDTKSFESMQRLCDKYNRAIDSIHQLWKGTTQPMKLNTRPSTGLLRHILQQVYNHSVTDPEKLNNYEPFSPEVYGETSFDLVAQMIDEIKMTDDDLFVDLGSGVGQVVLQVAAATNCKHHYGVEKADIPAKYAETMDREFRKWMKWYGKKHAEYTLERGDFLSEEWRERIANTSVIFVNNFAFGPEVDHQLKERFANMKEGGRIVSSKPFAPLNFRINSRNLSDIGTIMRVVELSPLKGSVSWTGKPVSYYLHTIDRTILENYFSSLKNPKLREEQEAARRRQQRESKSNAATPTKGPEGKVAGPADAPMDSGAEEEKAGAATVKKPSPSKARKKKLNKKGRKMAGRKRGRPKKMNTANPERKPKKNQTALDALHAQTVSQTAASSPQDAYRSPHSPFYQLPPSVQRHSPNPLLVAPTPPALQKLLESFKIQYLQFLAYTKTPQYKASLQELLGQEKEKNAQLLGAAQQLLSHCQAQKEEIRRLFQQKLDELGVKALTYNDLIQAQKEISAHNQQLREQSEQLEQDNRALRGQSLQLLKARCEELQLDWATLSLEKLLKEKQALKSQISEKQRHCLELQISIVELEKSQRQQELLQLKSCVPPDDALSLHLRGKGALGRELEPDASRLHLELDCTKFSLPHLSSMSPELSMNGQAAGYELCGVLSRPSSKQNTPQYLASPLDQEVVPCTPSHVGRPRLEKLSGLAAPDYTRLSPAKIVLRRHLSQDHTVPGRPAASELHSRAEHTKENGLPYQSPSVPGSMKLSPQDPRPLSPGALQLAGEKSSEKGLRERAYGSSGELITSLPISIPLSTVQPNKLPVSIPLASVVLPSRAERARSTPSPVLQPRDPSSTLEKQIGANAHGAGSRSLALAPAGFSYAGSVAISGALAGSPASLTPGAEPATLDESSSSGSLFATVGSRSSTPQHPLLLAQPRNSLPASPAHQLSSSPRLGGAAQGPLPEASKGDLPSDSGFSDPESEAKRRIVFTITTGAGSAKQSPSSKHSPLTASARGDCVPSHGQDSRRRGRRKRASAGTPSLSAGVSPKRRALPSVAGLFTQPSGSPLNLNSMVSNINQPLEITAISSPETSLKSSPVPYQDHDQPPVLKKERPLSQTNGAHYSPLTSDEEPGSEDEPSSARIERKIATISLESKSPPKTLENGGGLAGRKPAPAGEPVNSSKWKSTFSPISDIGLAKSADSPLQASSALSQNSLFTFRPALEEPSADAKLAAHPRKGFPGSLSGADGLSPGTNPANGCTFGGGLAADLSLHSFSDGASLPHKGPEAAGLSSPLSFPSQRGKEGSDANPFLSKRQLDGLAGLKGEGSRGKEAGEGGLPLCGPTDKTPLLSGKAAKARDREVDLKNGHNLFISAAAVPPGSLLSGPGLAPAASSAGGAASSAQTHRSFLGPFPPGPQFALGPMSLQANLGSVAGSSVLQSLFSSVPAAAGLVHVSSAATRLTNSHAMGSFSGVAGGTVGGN
In data set [16] the target is T1, Histone-lysine N-methyltransferase SMYD3 (Homo sapiens). Briefly: Inhibition of SMYD3-induced Akt1 lysine methylation in human BGC-823 cells at 1 uM by Western blot analysis. It counts as cell-based.
Data set [17] shares this target. Briefly: Inhibition of SMYD3 in human BGC-823 cells transfected with SMYD3 siRNA assessed as suppression of H3K4 methylation level by Western blot analysis. It counts as cell-based.
A short description of data set [18]: Toxicity in Balb/c nude mouse xenografted with human BGC-823 cells assessed as change in body weight at 15 to 30 mg/kg, ip. It counts as organism-based. Particulars: in vivo, dose 15-30 mg/kg.
In data set [19] the test system is BGC-823. Briefly: Inhibition of autophagic flux in human BGC-823 cells assessed as LC3-II accumulation incubated for 24 hrs in the presence of 3-MA by Western blot analysis. It counts as functional, cell-based.
The subject of data set [20] is BGC-823. Briefly: Antiproliferative activity against human BGC-823 cells xenografted in Balb/c nude mouse assessed as induction of autophagy by measuring increase in LC3-II staining at 15 to 30 mg/kg, ip by immunohistochemistry analysis. It counts as functional, organism-based. Particulars: dose 15-30 mg/kg.
Data set [21] has as its system BGC-823. Briefly: Induction of autophagy in human BGC-823 cells transfected with GFP-LC3 assessed as increase in GFP-LC3 fluorescent puncta by DAPI staining based immunofluorescence analysis. It counts as functional, cell-based.
For data set [22], the system named is BGC-823. The data set is described as follows: Inhibition of autophagic flux in human BGC-823 cells transfected with Akt1 siRNA assessed as increase in mTOR incubated for 24 hrs by Western blot analysis. It counts as functional, cell-based.
The target of data set [23] is N-lysine methyltransferase SMYD2 (Homo sapiens) (UniProt Q9NRG4). The data set is described as follows: Inhibition of SMYD2 (unknown origin).
N-lysine methyltransferase SMYD2 (Homo sapiens), sequence (Q9NRG4 whole entry): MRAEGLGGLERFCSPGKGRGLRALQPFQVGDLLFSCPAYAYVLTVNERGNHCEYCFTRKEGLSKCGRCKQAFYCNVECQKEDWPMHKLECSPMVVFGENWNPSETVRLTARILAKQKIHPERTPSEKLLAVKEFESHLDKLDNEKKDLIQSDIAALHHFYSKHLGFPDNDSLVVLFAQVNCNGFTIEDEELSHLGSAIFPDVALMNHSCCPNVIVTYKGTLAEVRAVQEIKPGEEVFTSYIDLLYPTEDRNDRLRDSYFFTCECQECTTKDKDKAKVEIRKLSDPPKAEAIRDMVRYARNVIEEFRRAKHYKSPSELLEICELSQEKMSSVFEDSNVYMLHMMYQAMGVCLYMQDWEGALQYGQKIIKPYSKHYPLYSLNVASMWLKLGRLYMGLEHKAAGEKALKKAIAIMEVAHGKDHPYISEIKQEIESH
Data set [24] deals with T3, Histone-lysine N-methyltransferase EHMT2 (Homo sapiens) (UniProt Q96KQ7).
T3 sequence (whole entry): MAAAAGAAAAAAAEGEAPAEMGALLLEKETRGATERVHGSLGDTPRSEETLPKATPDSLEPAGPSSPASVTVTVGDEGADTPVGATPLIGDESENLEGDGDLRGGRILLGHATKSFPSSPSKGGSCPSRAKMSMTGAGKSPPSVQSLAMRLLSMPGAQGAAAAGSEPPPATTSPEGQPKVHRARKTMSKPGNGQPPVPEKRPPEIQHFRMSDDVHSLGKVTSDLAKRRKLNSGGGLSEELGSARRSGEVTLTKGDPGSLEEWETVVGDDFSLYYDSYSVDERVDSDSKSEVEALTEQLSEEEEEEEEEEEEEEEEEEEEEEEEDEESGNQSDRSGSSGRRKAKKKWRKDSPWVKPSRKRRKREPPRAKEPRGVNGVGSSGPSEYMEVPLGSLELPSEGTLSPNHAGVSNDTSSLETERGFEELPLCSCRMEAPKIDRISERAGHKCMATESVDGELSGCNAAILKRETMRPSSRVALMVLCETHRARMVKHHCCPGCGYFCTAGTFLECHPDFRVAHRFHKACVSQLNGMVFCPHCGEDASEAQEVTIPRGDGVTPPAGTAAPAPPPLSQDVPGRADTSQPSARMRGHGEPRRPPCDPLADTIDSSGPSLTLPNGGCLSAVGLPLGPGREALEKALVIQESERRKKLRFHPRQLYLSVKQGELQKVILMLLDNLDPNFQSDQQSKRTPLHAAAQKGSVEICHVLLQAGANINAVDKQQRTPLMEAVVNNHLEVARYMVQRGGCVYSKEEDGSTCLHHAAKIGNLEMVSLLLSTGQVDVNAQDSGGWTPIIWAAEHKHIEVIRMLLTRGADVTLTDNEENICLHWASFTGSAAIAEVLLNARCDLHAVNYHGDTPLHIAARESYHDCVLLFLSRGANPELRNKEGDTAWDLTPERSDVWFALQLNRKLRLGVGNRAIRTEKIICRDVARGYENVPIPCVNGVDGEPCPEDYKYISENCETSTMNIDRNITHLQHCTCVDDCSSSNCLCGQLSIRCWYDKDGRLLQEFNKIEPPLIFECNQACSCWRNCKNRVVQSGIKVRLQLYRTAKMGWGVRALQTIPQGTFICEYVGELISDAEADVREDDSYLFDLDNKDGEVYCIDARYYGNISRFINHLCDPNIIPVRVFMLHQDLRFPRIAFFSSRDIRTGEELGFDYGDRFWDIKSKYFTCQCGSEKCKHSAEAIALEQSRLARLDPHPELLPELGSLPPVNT
Briefly: Inhibition of G9a (unknown origin).

For data set [25], the system named is BGC-823. The data set is described as follows: Inhibition of autophagic flux in human BGC-823 cells transfected with Akt1 siRNA assessed as LC3 cleavage incubated for 24 hrs by Western blot analysis. It counts as functional, cell-based.
Data set [26] has as its system Mus musculus. The data set is described as follows: Effect on total Akt protein level in Balb/c nude mouse xenografted with human BGC-823 cells at 15 to 30 mg/kg, ip by immunohistochemistry analysis. It counts as functional, organism-based. To be noted: dose 15-30 mg/kg.
The subject of data set [27] is BGC-823. The data set is described as follows: Effect on total H3 expression level in human BGC-823 cells at 1 uM by Western blot analysis. It counts as functional, cell-based.
The target in data set [28] is Histone-lysine N-methyltransferase EZH2 (Homo sapiens) (UniProt Q15910). Briefly: Inhibition of EZH2 (unknown origin).
Histone-lysine N-methyltransferase EZH2 (Homo sapiens), sequence (Q15910 whole entry, looked up): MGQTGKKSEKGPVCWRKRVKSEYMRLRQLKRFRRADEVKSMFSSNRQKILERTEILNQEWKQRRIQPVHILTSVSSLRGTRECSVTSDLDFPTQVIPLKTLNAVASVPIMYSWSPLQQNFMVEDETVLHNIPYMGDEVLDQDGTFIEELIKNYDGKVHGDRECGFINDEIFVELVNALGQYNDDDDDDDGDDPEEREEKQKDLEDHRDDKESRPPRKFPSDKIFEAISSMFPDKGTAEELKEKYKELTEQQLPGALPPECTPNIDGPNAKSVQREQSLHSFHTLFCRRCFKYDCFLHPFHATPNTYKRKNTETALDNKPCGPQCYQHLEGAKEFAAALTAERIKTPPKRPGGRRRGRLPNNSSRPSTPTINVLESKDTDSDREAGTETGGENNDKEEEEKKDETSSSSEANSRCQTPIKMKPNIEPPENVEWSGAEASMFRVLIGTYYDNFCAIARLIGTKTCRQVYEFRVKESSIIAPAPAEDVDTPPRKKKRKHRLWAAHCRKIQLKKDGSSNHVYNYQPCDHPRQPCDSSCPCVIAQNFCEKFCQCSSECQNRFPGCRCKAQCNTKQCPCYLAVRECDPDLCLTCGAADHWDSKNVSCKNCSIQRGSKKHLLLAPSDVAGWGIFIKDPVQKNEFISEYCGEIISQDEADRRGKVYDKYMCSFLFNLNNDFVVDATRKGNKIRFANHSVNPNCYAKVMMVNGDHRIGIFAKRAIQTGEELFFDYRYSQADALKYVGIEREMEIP
Data set [29] has as its system BGC-823. The data set is described as follows: Induction of autophagy in human BGC-823 cells transfected with GFP-LC3 assessed as increase in GFP-LC3 fluorescent puncta in the presence of 3-MA by DAPI staining based immunofluorescence analysis. It counts as functional, cell-based.
Data set [30] has as its system Mus musculus. The data set is described as follows: Effect on total SMYD3 protein level in Balb/c nude mouse xenografted with human BGC-823 cells at 15 to 30 mg/kg, ip by immunohistochemistry analysis. It counts as functional, organism-based. To be noted: dose 15-30 mg/kg.
The subject of data set [31] is BGC-823. Briefly: Induction of autophagy in human BGC-823 cells assessed as autophagic vacuoles by transmission electron microscopic analysis. It counts as functional, cell-based.
Data set [32] addresses T1, Histone-lysine N-methyltransferase SMYD3 (Homo sapiens). Briefly: Inhibition of SMYD3 in human BGC-823 cells assessed as translocation of SMYD3 from nucleus to cytoplasm by DAPI staining based analysis. It counts as cell-based.
Data set [33] concerns BGC-823. The data set is described as follows: Antitumor activity against human BGC-823 cells xenografted in ip dosed Balb/c nude mouse assessed as suppression of tumor growth. Particulars: dose 15-30 mg/kg. It counts as functional, organism-based.
The nature of data set [34]: Toxicity in Balb/c nude mouse xenografted with human BGC-823 cells assessed as change in main organs morphology at 15 to 30 mg/kg, ip by H&E staining based analysis. It counts as organism-based. Particulars: in vivo, dose 15-30 mg/kg.

As to `Cc1ccc([C@@H]2[C@H]3CN(Cc4ccccc4)C(=O)[C@@]3(O)O[C@]23C(=O)Nc2ccccc23)cc1`, in [1], the inhibition result is “Active”. Besides, the outcome in data set [2] and in [3] was Active.

Regarding `COc1ccc([C@@H]2[C@H]3CN(Cc4ccccc4)C(=O)[C@@]3(O)O[C@]23C(=O)Nc2ccccc23)cc1OC`, in data set [1], the inhibition result is “Active”. Further, the outcome in data set [2] and in [3] was Active.

In the case of `O=C1N(Cc2ccccc2)C[C@@H]2[C@@H](c3cccs3)[C@]3(O[C@]12O)C(=O)Nc1ccccc13`, in data set [1], the inhibition result was “Active”. The outcome in data set [2] and in data set [3] was Active.

With `O=C1N(Cc2ccccc2)C[C@@H]2[C@@H](c3ccc4ccccc4c3)[C@]3(O[C@]12O)C(=O)Nc1ccccc13`, the inhibition result in data set [1] is “Active”. The result in [2] and in data set [3] was Active.

For the compound `O=C1N(Cc2ccccc2)C[C@@H]2[C@@H](c3ccc(Cl)cc3)[C@]3(O[C@]12O)C(=O)Nc1ccccc13`, in [1], the inhibition result is “Active”. Further, the result in [2] and in data set [3] was Active.

For `O=C1N(Cc2ccccc2)C[C@@H]2[C@@H](c3ccc(Cl)cc3Cl)[C@]3(O[C@]12O)C(=O)Nc1ccccc13`, the inhibition result in [1] is “Active”. Also, the result in data set [2] and in data set [3] was Active.

On to `O=C1N(Cc2ccccc2)C[C@@H]2[C@@H](c3ccc(Br)cc3)[C@]3(O[C@]12O)C(=O)Nc1ccccc13`, for which the inhibition entry in [4], in data set [6], in data set [8], in data set [9], in data set [16] and in [17] was “Active” in each case. The inhibition entry in [19], in data set [22], in [25] and in data set [32] was “Active” throughout. In addition, the outcome in [5], in data set [11], in data set [14], in data set [26], in data set [27] and in data set [29] was inactive. Besides, the outcome in [30] was inactive. In addition, the Activity entry in data set [7] is “Dose-Dependent Effect”; in [12] it was “Dose-Dependent Effect”; in data set [18], “Non-Toxic”; in data set [33] it was “Dose-Dependent Effect”; in data set [34], “Non-Toxic”. Further, the 50% inhibitory concentration (IC50) in data set [10] worked out at 810 nM; in [3] it was 750 nM. The outcome in data set [13], in data set [2], in data set [20], in [21] and in data set [31] was Active. Further, the inhibition entry in [15], in data set [23], in [24] and in [28] was “inactive” in each case.

The IC50 is the concentration that gives 50% inhibition.
